Data from US9193733B2, “Piperidinylcyclobutyl substituted pyrrolopyridine and pyrrolopyrimidine derivatives as JAK inhibitors” (Incyte Corporation, priority 2012, dated 2015).

Legend:
Type in all cases: biochemical
[1] = target: T1, human JAK1 (a.a. 837-1142) catalytic domain (Homo sapiens, UniProt P23458); test: In vitro JAK kinase assay (HTRF, phosphorylation of a biotinylated peptide), JAK1; conditions: 1 mM ATP
T1 construct: human JAK1 (a.a. 837-1142) and JAK2 (a.a. 828-1132); His tag (N); made in house; host or cells: insect cells (baculovirus)
Experimental: (§1) Compounds herein were tested for inhibitory activity of JAK targets according to the following in vitro assay described in Park et al., Analytical Biochemistry 1999, 269, 94-104. The catalytic domains of human JAK1 (a.a. 837-1142) and JAK2 (a.a. 828-1132) with an N-terminal His tag were expressed using baculovirus in insect cells and purified. The catalytic activity of JAK1 and JAK2 was assayed by measuring the phosphorylation of a biotinylated peptide. The phosphorylated peptide was detected by homogenous time resolved fluorescence (HTRF). IC50s of compounds were measured for each kinase in the 40 microL reactions that contain the enzyme, ATP and 500 nM peptide in 50 mM Tris (pH 7.8) buffer with 100 mM NaCl, 5 mM DTT, and 0.1 mg/mL (0.01%) BSA. For the 1 mM IC50 measurements, ATP concentration in the reactions was 1 mM. Reactions were carried out at room temperature for 1 hour and then stopped with 20 μL 45 mM EDTA, 300 nM SA-APC, 6 nM Eu-Py20 in assay buffer (Perkin Elmer, Boston, Mass.). Binding to the Europium labeled antibody took place for 40 minutes and HTRF signal was measured on a Fusion plate reader (Perkin Elmer, Boston, Mass.). See Table A for data related to compounds of the Examples (at 1 mM). Data is indicated as ranges: <20 nM (+), 20 to <150 nM (++), 150 to 500 nM (+++).

[2] = system: human JAK1 (a.a. 837-1142) catalytic domain; test: as above; conditions: ratio of JAK2 IC50 to JAK1 IC50, 1 mM ATP
Experimental: as §1

[3] = target: T2, human JAK2 (a.a. 828-1132) catalytic domain (Homo sapiens, UniProt O60674); test: In vitro JAK kinase assay (HTRF, phosphorylation of a biotinylated peptide), JAK2; conditions: 1 mM ATP
T2 construct: human JAK1 (a.a. 837-1142) and JAK2 (a.a. 828-1132); His tag (N); made in house; host or cells: insect cells (baculovirus)
Experimental: as §1

T1 sequence (P23458 849-1154): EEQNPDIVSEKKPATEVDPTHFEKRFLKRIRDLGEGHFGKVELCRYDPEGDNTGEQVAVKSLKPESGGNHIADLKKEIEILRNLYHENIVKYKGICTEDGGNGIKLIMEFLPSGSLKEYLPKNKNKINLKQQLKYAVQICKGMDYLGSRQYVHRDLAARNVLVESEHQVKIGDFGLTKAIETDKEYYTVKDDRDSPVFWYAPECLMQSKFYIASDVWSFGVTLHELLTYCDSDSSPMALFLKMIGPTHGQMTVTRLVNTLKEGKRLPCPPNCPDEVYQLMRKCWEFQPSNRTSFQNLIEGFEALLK
T2 sequence (O60674 828-1132): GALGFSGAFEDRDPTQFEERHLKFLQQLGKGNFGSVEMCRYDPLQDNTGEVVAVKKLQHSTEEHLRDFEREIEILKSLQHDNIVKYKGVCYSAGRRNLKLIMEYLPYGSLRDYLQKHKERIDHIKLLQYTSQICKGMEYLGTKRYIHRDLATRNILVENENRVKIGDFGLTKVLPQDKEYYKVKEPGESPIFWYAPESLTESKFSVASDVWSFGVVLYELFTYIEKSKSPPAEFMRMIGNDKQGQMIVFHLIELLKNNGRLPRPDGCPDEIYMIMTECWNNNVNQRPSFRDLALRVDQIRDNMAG

| Molecule | IC50 [1] | JAK2/JAK1 [2] | IC50 [3] |
| --- | --- | --- | --- |
| N#CC[C@]1(n2cc(-c3ncnc4[nH]ccc34)cn2)C[C@H](N2CCC(Oc3cc(CN[C@H]4C[C@H](O)C4)cc(C(F)(F)F)n3)CC2)C1 [Example 12, {trans-3-(4-{[4-{[(trans-3-hydroxycyclobutyl)amino]methyl}-6-(trifluoromethyl)pyridin-2-yl]oxy}piperidin-1-yl)-1-[4-(7H-pyrrolo[2,3-d]pyrimidin-4-yl)-1H-pyrazol-1-yl]cyclobutyl}acetonitrile] | < 20 nM | >10 | 20 to 150 nM |
| N#CC[C@]1(n2cc(-c3ncnc4[nH]ccc34)cn2)C[C@H](N2CCC(Oc3cc(Cn4ccnc4)cc(C(F)(F)F)n3)CC2)C1 [Example 22, {trans-3-(4-{[4-(1H-imidazol-1-ylmethyl)-6-(trifluoromethyl)pyridin-2-yl]oxy}piperidin-1-yl)-1-[4-(7H-pyrrolo[2,3-d]pyrimidin-4-yl)-1H-pyrazol-1-yl]cyclobutyl}acetonitrile] | < 20 nM | >10 | 20 to 150 nM |
| CN(Cc1cc(NC2CCN([C@H]3C[C@](CC#N)(n4cc(-c5ncnc6[nH]ccc56)cn4)C3)CC2)nc(C(F)(F)F)c1)C1CC1 [Example 37, {trans-3-(4-{[4-{[cyclopropyl(methyl)amino]methyl}-6-(trifluoromethyl)pyridin-2-yl]amino}piperidin-1-yl)-1-[4-(7H-pyrrolo[2,3-d]pyrimidin-4-yl)-1H-pyrazol-1-yl]cyclobutyl}acetonitrile] | < 20 nM | >10 | 150 to 500 nM |
| {cis-3-(4-{[4-(2-hydroxyethyl)-6-(trifluoromethyl)pyridin-2-yl]amino}piperidin-1-yl)-1-[4-(7H-pyrrolo[2,3-d]pyrimidin-4-yl)-1H-pyrazol-1-yl]cyclobutyl}acetonitrile and {trans-3-(4-{[4-(2-hydroxyethyl)-6-(trifluoromethyl)pyridin-2-yl]amino}piperidin-1-yl)-1-[4-(7H-pyrrolo[2,3-d]pyrimidin-4-yl)-1H-pyrazol-1-yl]cyclobutyl}acetonitrile [Example 38] | < 20 nM | >10 | 20 to 150 nM |
| N#CC[C@]1(n2cc(-c3ncnc4[nH]ccc34)cn2)C[C@H](N2CCC(Nc3cc(CN4CCOCC4)cc(C(F)(F)F)n3)CC2)C1 [Example 40, {trans-3-(4-{[4-(morpholin-4-ylmethyl)-6-(trifluoromethyl)pyridin-2-yl]amino}piperidin-1-yl)-1-[4-(7H-pyrrolo[2,3-d]pyrimidin-4-yl)-1H-pyrazol-1-yl]cyclobutyl}acetonitrile] | < 20 nM | >10 | 20 to 150 nM |
| N#CC[C@]1(n2cc(-c3ncnc4[nH]ccc34)cn2)C[C@H](N2CCC(Nc3cc(CNCCO)cc(C(F)(F)F)n3)CC2)C1 [Example 33, {trans-3-(4-{[4-{[(2-hydroxyethyl)amino]methyl}-6-(trifluoromethyl)pyridin-2-yl]amino}piperidin-1-yl)-1-[4-(7H-pyrrolo[2,3-d]pyrimidin-4-yl)-1H-pyrazol-1-yl]cyclobutyl}acetonitrile] | < 20 nM | >10 | 20 to 150 nM |
| N#CC[C@]1(n2cc(-c3ncnc4[nH]ccc34)cn2)C[C@H](N2CCC(Nc3cc(CO)nc(C(F)(F)F)n3)CC2)C1 [Example 27, {trans-3-(4-{[6-(hydroxymethyl)-2-(trifluoromethyl)pyrimidin-4-yl]amino}piperidin-1-yl)-1-[4-(7H-pyrrolo[2,3-d]pyrimidin-4-yl)-1H-pyrazol-1-yl]cyclobutyl}acetonitrile] | < 20 nM | >10 | 20 to 150 nM |
| N#CC[C@]1(n2cc(-c3ncnc4[nH]ccc34)cn2)C[C@H](N2CCC(Oc3cc(C4(O)COC4)cc(C(F)(F)F)n3)CC2)C1 [Example 49, {trans-3-(4-{[4-(3-hydroxyoxetan-3-yl)-6-(trifluoromethyl)pyridin-2-yl]oxy}piperidin-1-yl)-1-[4-(7H-pyrrolo[2,3-d]pyrimidin-4-yl)-1H-pyrazol-1-yl]cyclobutyl}acetonitrile] | < 20 nM | >10 | 20 to 150 nM |
| N#CC[C@]1(n2cc(-c3ncnc4[nH]ccc34)cn2)C[C@H](N2CCC(Nc3cc(CN[C@H]4C[C@H](O)C4)nc(C(F)(F)F)n3)CC2)C1 [Example 30, {trans-3-(4-{[6-{[(trans-3-hydroxycyclobutyl)amino]methyl}-2-(trifluoromethyl)pyrimidin-4-yl]amino}piperidin-1-yl)-1-[4-(7H-pyrrolo[2,3-d]pyrimidin-4-yl)-1H-pyrazol-1-yl]cyclobutyl}acetonitrile] | < 20 nM | >10 | 20 to 150 nM |

Results, then the molecule that gave them:

| IC50 [1] | JAK2/JAK1 [2] | IC50 [3] | Molecule |
| --- | --- | --- | --- |
| < 20 nM | >10 | 20 to 150 nM | N#CC[C@]1(n2cc(-c3ncnc4[nH]ccc34)cn2)C[C@H](N2CCC(Nc3cc(CN4CC(O)C4)cc(C(F)(F)F)n3)CC2)C1 [Example 41, {trans-3-(4-{[4-[(3-hydroxyazetidin-1-yl)methyl]-6-(trifluoromethyl)pyridin-2-yl]amino}piperidin-1-yl)-1-[4-(7H-pyrrolo[2,3-d]pyrimidin-4-yl)-1H-pyrazol-1-yl]cyclobutyl}acetonitrile] |
| < 20 nM | >10 | 20 to 150 nM | N#CC[C@]1(n2cc(-c3ncnc4[nH]ccc34)cn2)C[C@H](N2CCC(Oc3cc(Cn4cncn4)cc(C(F)(F)F)n3)CC2)C1 [Example 23, [trans-1-[4-(7H-pyrrolo[2,3-d]pyrimidin-4-yl)-1H-pyrazol-1-yl]-3-(4-{[4-(1H-1,2,4-triazol-1-ylmethyl)-6-(trifluoromethyl)pyridin-2-yl]oxy}piperidin-1-yl)cyclobutyl]acetonitrile] |
| < 20 nM | >10 | 20 to 150 nM | CN(CCO)Cc1cc(NC2CCN([C@H]3C[C@](CC#N)(n4cc(-c5ncnc6[nH]ccc56)cn4)C3)CC2)nc(C(F)(F)F)c1 [Example 42, {trans-3-(4-{[4-{[(2-hydroxyethyl)(methyl)amino]methyl}-6-(trifluoromethyl)pyridin-2-yl]amino}piperidin-1-yl)-1-[4-(7H-pyrrolo[2,3-d]pyrimidin-4-yl)-1H-pyrazol-1-yl]cyclobutyl}acetonitrile] |
| < 20 nM | >10 | 20 to 150 nM | N#CC[C@]1(n2cc(-c3ncnc4[nH]ccc34)cn2)C[C@H](N2CCC(Oc3cc(CN[C@H]4CCOC4)cc(C(F)(F)F)n3)CC2)C1 [Example 7, [trans-1-[4-(7H-pyrrolo[2,3-d]pyrimidin-4-yl)-1H-pyrazol-1-yl]-3-(4-{[4-{[(3S)-tetrahydrofuran-3-ylamino]methyl}-6-(trifluoromethyl)pyridin-2-yl]oxy}piperidin-1-yl)cyclobutyl]acetonitrile] |
| < 20 nM | >10 | 20 to 150 nM | COCCNCc1cc(OC2CCN([C@H]3C[C@](CC#N)(n4cc(-c5ncnc6[nH]ccc56)cn4)C3)CC2)nc(C(F)(F)F)c1 [Example 3, {trans-3-(4-{[4-{[(2-methoxyethyl)amino]methyl}-6-(trifluoromethyl)pyridin-2-yl]oxy}piperidin-1-yl)-1-[4-(7H-pyrrolo[2,3-d]pyrimidin-4-yl)-1H-pyrazol-1-yl]cyclobutyl}acetonitrile] |
| < 20 nM | >10 | 20 to 150 nM | N#CC[C@]1(n2cc(-c3ncnc4[nH]ccc34)cn2)C[C@H](N2CCC(Oc3cc(CN(CCO)CCO)cc(C(F)(F)F)n3)CC2)C1 [Example 16, {trans-3-(4-{[4-{[bis(2-hydroxyethyl)amino]methyl}-6-(trifluoromethyl)pyridin-2-yl]oxy}piperidin-1-yl)-1-[4-(7H-pyrrolo[2,3-d]pyrimidin-4-yl)-1H-pyrazol-1-yl]cyclobutyl}acetonitrile] |
